Legend:
[1] = Summary of polymorph screening experiments, total over all methods; format: physicochemical
Description: A total of 64 polymorph screening experiments were performed for freebase Compound 1 using the sample received as starting material through different crystallization methods. As a result, Form A was obtained from polymorph screening.
Results summarized in Table 40 were used to guide the solvent selection in polymorph screening of adipate.

Slow evaporation = format: physicochemical
Description: Slow evaporation. Slow evaporation experiments were performed under 10 conditions. Briefly, about 15˜20 mg of freebase starting material (810935-01-A) was dissolved in 0.5˜1.0 mL of solvent in a 3-mL glass vial.
Slow evaporation Compound A. Slow evaporation experiments were performed under seven conditions.

Anti-solvent addition = format: physicochemical
Description: Anti-solvent addition. A total of 12 anti-solvent addition experiments were carried out. […] The obtained precipitate was isolated for XRPD analysis.
Anti-solvent addition Compound A. A total of 14 anti-solvent addition experiments were carried out. […] The obtained precipitate was isolated for XRPD analysis.

Liquid vapor diffusion = format: physicochemical
Description: (§1) Liquid vapor diffusion. Liquid vapor diffusion experiments were conducted in different solvent systems. […] This solution was then placed into a 20-mL vial with 3 mL of corresponding anti-solvent. The 20-mL vial was sealed with a cap and kept at RT allowing sufficient time for organic vapor to interact with the solution. The precipitates were isolated for XRPD analysis.
as §1, with “diffusion Compound A.” for “diffusion.”

[2] = Slurry conversion experiments (XRPD of isolated solids); format: physicochemical
Description: Slurry conversion experiments were conducted at RT in different solvent systems. About 15˜20 mg of freebase starting material (Compound 1) was suspended in 0.5 mL of solvent in an HPLC vial. Solids were isolated for XRPD analysis after magnetically stirring at RT.
Slurry at 5°. Slurry conversion experiments were conducted at 5° C. in different solvent systems. About 15˜20 mg of freebase starting material (Compound 1) was suspended in 0.5 mL of solvent in an HPLC vial. Solids were isolated for XRPD analysis after magnetically stirring at 5° C.
Slurry at 50°. Slurry conversion experiments were conducted at 50° C. in different solvent systems. About 20 mg of freebase starting material (Compound 1) was suspended in 0.5 mL of solvent in an HPLC vial. Solids were isolated for XRPD analysis after magnetical stirring at 50° C.
Slurry at RT for Compound A. Slurry conversion experiments were conducted at RT in different solvent systems. […] Solids were isolated for XRPD analysis after magnetic stirring at RT.
Slurry at 50° for Compound A. Slurry conversion experiments were conducted at 50° C. in different solvent systems. […] Solids were isolated for XRPD analysis after magnetic stirring at 50° C.

[3] = Moisture absorption observed during XRPD test; format: physicochemical
Description: Compound E Form A was obtained from acetone system. Limited solids were observed after stirring at 5° C. […] The suspension was transferred to −20° C., but limited solids were still observed. Anti-solvent (n-heptane) was added and the sample was transferred to 5° C. However, gel was obtained.

[4] = VH-XRPD analysis / transitions of forms at varying relative humidity; format: physicochemical
Excerpt: FIG. 19. The sample then reverts to the original form upon reaching 30% RH. […] Transitions of Forms of Compound A at varying RH.

[5] = Overall summary of solid form stability; conditions: compared with the other identified salt forms
Excerpt: Overall Summary. […] The amorphous form is considered for development purposes to be unstable for further development.

Solid vapor diffusion = format: physicochemical; conditions: adipate polymorph screening summary; Solid Vapor Diffusion
Description: Solid vapor diffusion Compound A. Solid vapor diffusion experiments were conducted using 12 different solvents. […] The 20-mL vial was sealed with a cap and kept at RT allowing solvent vapor to interact with the sample.

Slow cooling = format: physicochemical; conditions: adipate polymorph screening summary; Slow Cooling
Description: Slow cooling Compound A. Slow cooling experiments were conducted in four solvent systems. […] The suspension was then heated to 50° C., equilibrated for about 2 hr and filtered to a new vial using a seal membrane (PTFE, pore size of 0.45 μm). Filtrates were slowly cooled down to 5° C. at a rate of 0.1° C./min. The obtained solids were kept isothermal at 5° C. before isolation for XRPD analysis.

C=CC(=O)N1CCN(c2nc(OC[C@@H]3CCCN3C)nc3c(F)c(-c4nc(N)cc(C)c4C(F)(F)F)c(Cl)cc23)[C@@H](C)C1 (atropisomer, axis not shown) [Compound 1, 1-((S)-4-((R)-7-(6-amino-4-methyl-3-(trifluoromethyl)pyridin-2-yl)-6-chloro-8-fluoro-2-(((S)-1-methylpyrrolidin-2-yl)methoxy)quinazolin-4-yl)-3-methylpiperazin-1-yl)prop-2-en-1-one]
Result ([1]; freebase polymorph screening summary): Form A, amorphous, gel, clear
Result (Slow evaporation; freebase polymorph screening summary, Slow Evaporation): Form A, amorphous, gel
Result (Slow evaporation; freebase, evaporation at RT, 2-MeTHF): Gel
Result (Slow evaporation; freebase, evaporation at RT, ACN): Form A
Result (Slow evaporation; freebase, evaporation at RT, Acetone): Form A
Result (Slow evaporation; freebase, evaporation at RT, DCM): Form A (Low crystallinity)
Result (Slow evaporation; freebase, evaporation at RT, EtOAc): Amorphous
Result (Slow evaporation; freebase, evaporation at RT, EtOH): Form A
Result (Slow evaporation; freebase, evaporation at RT, IPAc): Gel
Result (Slow evaporation; freebase, evaporation at RT, MEK): Amorphous
Result (Slow evaporation; freebase, evaporation at RT, MeOH): Amorphous
Result (Slow evaporation; freebase, evaporation at RT, THF): Amorphous
Result (Anti-solvent addition; freebase polymorph screening summary, Anti-solvent Addition): Form A, amorphous, gel,
Result (Anti-solvent addition; freebase, solvent 1.4-Dioxane, anti-solvent H2O): Gel
Result (Anti-solvent addition; freebase, solvent ACN, anti-solvent n-Heptane): Form A (Low
Result (Anti-solvent addition; freebase, solvent Acetone, anti-solvent n-Heptane): Form A (Low
Result (Anti-solvent addition; freebase, solvent Anisole, anti-solvent Cyclohexane): Gel
Result (Anti-solvent addition; freebase, solvent CPME, anti-solvent n-Heptane): Amorphous
Result (Anti-solvent addition; freebase, solvent DCM, anti-solvent Cyclohexane): Form A (Low
Result (Anti-solvent addition; freebase, solvent DMSO, anti-solvent H2O): Low crystallinity
Result (Anti-solvent addition; freebase, solvent EtOAc, anti-solvent n-Heptane): Amorphous
Result (Anti-solvent addition; freebase, solvent MEK, anti-solvent Cyclohexane): Gel
Result (Anti-solvent addition; freebase, solvent MeOH, anti-solvent H2O): Amorphous
Result (Anti-solvent addition; freebase, solvent THF, anti-solvent H2O): Form A (Low
Result (Anti-solvent addition; freebase, solvent Toluene, anti-solvent n-Heptane): Amorphous
Result (Liquid vapor diffusion; freebase polymorph screening summary, Liquid Vapor Diffusion): Form A, amorphous, gel, clear
Result (Liquid vapor diffusion; freebase, RT, solvent 1.4-Dioxane, anti-solvent n-Heptane): Gel
Result (Liquid vapor diffusion; freebase, RT, solvent 2-Butanol, anti-solvent n-Heptane): Gel
Result (Liquid vapor diffusion; freebase, RT, solvent ACN, anti-solvent H2O): Form A
Result (Liquid vapor diffusion; freebase, RT, solvent Acetone, anti-solvent n-Pentane): Form A
Result (Liquid vapor diffusion; freebase, RT, solvent Anisole, anti-solvent n-Pentane): Gel
Result (Liquid vapor diffusion; freebase, RT, solvent CPME, anti-solvent n-Pentane): Gel
Result (Liquid vapor diffusion; freebase, RT, solvent DMF, anti-solvent H2O): Clear solution
Result (Liquid vapor diffusion; freebase, RT, solvent DMSO, anti-solvent H2O): Amorphous
Result (Liquid vapor diffusion; freebase, RT, solvent EtOAc, anti-solvent n-Pentane): Gel
Result (Liquid vapor diffusion; freebase, RT, solvent IPAc, anti-solvent n-Heptane): Amorphous
Result (Liquid vapor diffusion; freebase, RT, solvent THF, anti-solvent H2O): Form A (Low crystallinity)
Result (Liquid vapor diffusion; freebase, RT, solvent Toluene, anti-solvent n-Heptane): Gel
Result (Liquid vapor diffusion; freebase, RT, solvent Xylene, anti-solvent n-Pentane): Gel
Slurry conversion result (XRPD form) ([2]; 5° C., different solvent systems): Form A and amorphous were obtained
Slurry conversion result (XRPD form) ([2]; 50° C., H2O): Amorphous
Slurry conversion result (XRPD form) ([2]; 50° C., different solvent systems): amorphous was obtained
Slurry conversion result (XRPD form) ([2]; 50° C., n-Heptane): Amorphous
Slurry conversion result (XRPD form) ([2]; RT, different solvent systems): Form A and amorphous were obtained
Result ([2]; freebase polymorph screening summary, Slurry at RT/5 °C/50 °C): Form A, amorphous, gel,
Result ([2]; freebase slurry at 5° C., 2-MeTHF/n-Heptane, 1:3): Gel
Result ([2]; freebase slurry at 5° C., ACN): Form A
Result ([2]; freebase slurry at 5° C., DMAc/n-Heptane, 1:3): Gel
Result ([2]; freebase slurry at 5° C., DMF/H2O, 1:3): Amorphous
Result ([2]; freebase slurry at 5° C., Ethyl lactate/H2O, 1:3): Gel
Result ([2]; freebase slurry at 5° C., IPAc/n-Heptane, 1:3): Amorphous
Result ([2]; freebase slurry at 5° C., MIBK/n-Heptane, 1:3): Gel
Result ([2]; freebase slurry at 5° C., NMP/H2O, 1:4): Amorphous
Result ([2]; freebase slurry at 5° C., Xylene/n-Heptane, 1:3): Amorphous
Result ([2]; freebase slurry at RT, 1,4-Dioxane/H2O, 1:4): Amorphous
Result ([2]; freebase slurry at RT, ACN): Form A
Result ([2]; freebase slurry at RT, ACN/H2O, 1:1): Form A (Low crystallinity)
Result ([2]; freebase slurry at RT, Acetone/H2O, 1:4): Form A
Result ([2]; freebase slurry at RT, Anisole/n-Heptane, 1:4): Gel
Result ([2]; freebase slurry at RT, Benzyl alcohol/n-Heptane, 1:4): Gel
Result ([2]; freebase slurry at RT, CPME/Cyclohexane, 1:4): Amorphous
Result ([2]; freebase slurry at RT, DCM/n-Heptane, 1:4): Form A
Result ([2]; freebase slurry at RT, EtOAc/Cyclohexane, 1:4): Amorphous
Result ([2]; freebase slurry at RT, EtOH): Form A
Result ([2]; freebase slurry at RT, EtOH/H2O, 1:1): Form A
Result ([2]; freebase slurry at RT, IPA): Form A (Low crystallinity)
Result ([2]; freebase slurry at RT, MEK/Cyclohexane, 1:4): Amorphous
Result ([2]; freebase slurry at RT, MTBE): Gel
Result ([2]; freebase slurry at RT, THF/n-Heptane, 1:4): Form A
Result ([2]; freebase slurry at RT, Toluene/Cyclohexane, 1:4): Amorphous

C=CC(=O)N1CCN(c2nc(OC[C@@H]3CCCN3C)nc3c(F)c(-c4nc(N)cc(C)c4C(F)(F)F)c(Cl)cc23)[C@@H](C)C1.CS(=O)(=O)O (atropisomer, axis not shown) [Compound E Form A]
Moisture behaviour of the sample during XRPD test [3]: tended to absorb moisture and turn to liquid

C=CC(=O)N1CCN(c2nc(OC[C@@H]3CCCN3C)nc3c(F)c(-c4nc(N)cc(C)c4C(F)(F)F)c(Cl)cc23)[C@@H](C)C1 [Compound A]
RH at which sample reverts to the original form (VH-XRPD) [4]: 30 % RH
RH at which small changes appear in VH-XRPD ([4]; changes remain up until 80% RH): 44-46 % RH
Stability of the form for further development [5]: most stable form

C=CC(=O)N1CCN(c2nc(OC[C@@H]3CCCN3C)nc3c(F)c(-c4nc(N)cc(C)c4C(F)(F)F)c(Cl)cc23)[C@@H](C)C1.O=C(O)CCCCC(=O)O [adipate]
Result ([1]; adipate polymorph screening summary): Compound A Form A, Compound A Form
Result (Slow evaporation; adipate polymorph screening summary, Slow Evaporation): Gel, clear
Result (Solid vapor diffusion): Compound A Form A
Result (Anti-solvent addition; adipate polymorph screening summary, Anti-solvent Addition): Compound A Form A, B, clear, gel
Result (Liquid vapor diffusion; adipate polymorph screening summary, Liquid Vapor Diffusion): Amorphous, clear, gel
Result ([2]; adipate polymorph screening summary, Slurry at RT/50° C.): Compound A Form A, gel, clear
Result (Slow cooling): Compound A Form A

— US12565485B2, “Solid forms of 1-((S)-4-((R)-7-(6-amino-4-methyl-3-(trifluoromethyl)pyridin-2-yl)-6-chloro-8-fluoro-2-(((s)-1-methylpyrrolidin-2-yl)methoxy)quinazolin-4-yl)-3-methylpiperazin-1-yl)prop-2-en-1-one” (Genentech, Inc., priority 2022, dated 2026)
